The values below are quoted from earlier work in patent publication US20230322797A1, “SOLID FORMS, PHARMACEUTICAL COMPOSITIONS AND PREPARATION OF HETEROAROMATIC MACROCYCLIC ETHER COMPOUNDS” (Nuvalent, Inc., priority 2022, published 2023).

The data set has as its system ROS1-positive NSCLC. The following applies: ROS1-positive NSCLC patients; cited from earlier work.

`C[C@@H](Oc1cc(-c2cnn(C3CCNCC3)c2)cnc1N)c1c(Cl)ccc(F)c1Cl` [Crizotinib]: the Median progression-free survival is recorded as 9-19 months.
